Measured values published in patent publication US20170258756A1, “A Method for Topically Treating Actinic Keratosis on the Scalp with Ingenol 3-(3,5-diethylisoxazole-4-carboxylate)” (LEO Laboratories Limited, priority 2014, published 2017).

Key:
[1] = system: actinic keratosis on the scalp; test: Part 2 open label trial, 0.037% gel once daily for three consecutive days on the scalp; format: in vivo, human
Source text: The outcome for Part 2 is safety and efficacy in a once daily application for three consecutive days on the scalp. The efficacy in treating of the AK will be measured as reduction in AK count in the treated area of lesions which are not considered hyperkeratotic/hypertrophic.
In parallel the efficacy in treating of the AK will be measured as reduction in AK count in the treated area of lesions which are considered hyperkeratotic/hypertrophic.
The reduction in AK count will be performed at week 4 and 8 no matter the type of lesion. Also complete clearance of AKs in the treated area which are not considered hyperkeratotic/hypertrophic at week 8 will be measured.
To qualify for part 2 of the trial, the subjects must have 5-20 clinically visible and discrete AKs within 250 cm^2 area on the balding scalp (The balding part of the scalp should be greater than 25 cm^2 and up to approximately 250 cm^2). In addition to the requirement of 5-20 clinically typical, visible and discrete AKs within the selected treatment area, subjects may also have visible and discrete hyperkeratotic/hypertrophic lesions in this area. The subjects will be treated with a dose of 0.037% as a once daily three consecutive days treatment and followed for 8 weeks.
The trial consists of an initial part, where 18 subjects will be treated on the scalp. […] As this is a safety trial, it is considered justified to conduct this clinical trial as an open-label, uncontrolled trial. An early safety and tolerability evaluation will be performed following the 3 days treatment. If safety and tolerability is found acceptable by the Early Data Review Committee, and additional 44 subjects will be enrolled in order to expand safety observations and obtain an estimate of treatment efficacy.
The patients are scheduled for 7 visits: • Visit 1: within 21 days prior to day 1 • Visit 2: day 1 (application of trial medication) • Visit 3: […] (application of trial medication) • Visit 4: day 8 (+2 day) • Visit 5: week 2 (±2 day) • Visit 6: week 4 (±4 day) • Visit 7: week 8 (±7 day)
LSRs are evaluated at all visits following visit 1. AK lesion counts are performed on Visit 2, 6 and 7.
At Baseline (Day 1) and Visit 7 (Week 8), the investigator will make a clinical (visual and tactile) assessment of the extent of photo-damage in the treatment area with respect to 1) fine wrinkling, 2) coarse wrinkling, 3) mottled pigmentation, 4) roughness, 5) sallowness, 6) skin laxity, and 7) telangiectasia. Severity for each of these characteristics will be on a 5-point scale: None (0), Mild (1), Moderate (2), Severe (3), Extreme (4).
At Visit 7 (Week 8) the Investigator will make an overall clinical (visual and tactile) assessment of the subject's photo-damage change from baseline in the treatment area (including an integrated assessment of fine wrinkling, coarse wrinkling, mottled pigmentation, roughness, sallowness, skin laxity, and telangiectasia based on the subject's appearance at the baseline visit).
At Visit 7 (Week 8), the subjects will complete a self-assessment questionnaire evaluating the change in the 1) overall appearance of the skin and 2) overall feel of the skin after treatment. The scoring will be on a 5-point scale: Much worsened, Somewhat worsened, No change, somewhat improved, much improved.
The secondary response criteria will be analysed for the full analysis set and for the per protocol analysis set. The ratio of number of AK lesions at week 8 relative to baseline, excluding lesions identified at base line as hyperkeratotic/hypertrophic lesions, will be tabulated by treatment group. Separately for each treatment group, the rate and corresponding 95% confidence interval will be estimated from a negative binomial regression on the AK count at week 8 with the log baseline value as an offset variable. The same analysis will be performed for the subgroup of lesions identified as hyperkeratotic/hypertrophic at baseline. […]

[2] = system: actinic keratosis on the scalp; test: Part 1 dose escalation trial, gel once daily for two consecutive days on the scalp (LSR / DLT); format: in vivo, human
Source text: Local skin reactions (LSRs) occurs sometimes in the treated area. Often LSRs are quantified by a scale evaluating the following types of skin reactions: erythema, flaking/scaling, crusting, swelling, vasiculation/postulation, and erosion/ulceration which are categorized into categories 0-4 depending on the severity of the reactions.
Dose Limiting toxicity (DLT) is defined as the following LSR: […]
Erosion/ulceration grade 4.
Or other clinically relevant signs or symptoms observed, which the Investigator judges to be counted as a DLT. Maximum tolerated dose (MTD) is declared as dose level at which less than 4 subjects out of experience a DLT of cohort of 12 subjects.
Part 1 was a dose escalation study conducted with a once daily application of trial medication for two consecutive days and continued until the MTD was identified.
Dose escalation proceeded if the safety and tolerability data of the subject up to day 8 was reviewed and considered satisfactory. The treatment consisted of once daily treatment for 2 consecutive days. Up to 5 different doses may be investigated in cohorts of […]. The number of subjects in each cohort depended on the number of observed DLTs. However, the MTD was always be confirmed in a cohort of 12 subjects. […] Dose escalation was stopped at the 0.075% dose level as the investigators in this study felt that the application site adverse events, although manageable, could pose a problem for some patients. […] Part 2 is a study of the efficacy of the 0.037% dose identified in part 1 in a three day regimen.
Part 1: Trial medication, ingenol 3-(3,5-diethylisoxazole-4-carboxylate) gel, will be applied to the treatment area once daily for two consecutive days until the maximum tolerated dose has been reached for each formulation. Up to five different doses of active compound in gel may be investigated in cohorts 12 subjects.
Predefined grades of Local Skin Responses (LSRs) will constitute dose limiting toxicity (DLT). The maximum tolerated dose is defined as the highest dose level at which less than 4 out of12 subjects experience a Dose limiting toxicity.
The doses will be administered in an escalating manner following review of safety and tolerability data performed by the dose escalation committee. Evaluation of the safety and tolerability data will be performed after Visit 5/day 8. Then subjects will be followed for 8 weeks after first application of investigational product.

[3] = system: dermal tumours; test: in vivo studies in mice, effects on dermal tumours; conditions: compared with ingenol mebutate
Source text: The exact mechanism of action of ingenol 3-(3,5-diethylisoxazole-4-carboxylate) continues to be investigated, but it is believed that ingenol 3-(3,5-diethylisoxazole-4-carboxylate) has a dual mechanism of action inducing cell death as well as stimulation of immune response.

## CCc1noc(CC)c1C(=O)O[C@H]1C(C)=C[C@]23C(=O)[C@@H](C=C(CO)[C@@H](O)[C@]12O)[C@H]1[C@@H](C[C@H]3C)C1(C)C [ingenol 3-(3,5-diethylisoxazole-4-carboxylate)]
[1]; once daily three consecutive days, scalp, 62 patients, week 8
  reduction in AK count: 79%
[1]; once daily three consecutive days, scalp, week 8
  complete clearance: 40%
[1]; three day regimen, cosmetic outcome self-assessment, % of subjects
  improvement in appearance and feel reported by subjects: more than 90%
[1]; three day regimen, investigator assessment
  photo damage improved, share of patients: two-thirds
[1]; three day regimen, rapid decline thereafter
  time at which side-effects maximize: 4 days
[1]; three day regimen, scalp
  side-effects: considered acceptable
[2]; 0.037%, two days dosing regimen
  tolerability of selected dose with respect to LSRs and application site reaction: well tolerated
[2]; two day regimen, dose escalation up to 0.075%
  subjects meeting dose limiting toxicity (DLT) criteria: no subjects met the predefined criteria for DLT
[2]; two day regimen, stopped because of application site adverse events, manageable
  dose level at which dose escalation was stopped: 0.075%
[2]; two day treatment, compared with 0.075%
  tolerability of 0.037% and 0.05% doses: clearly better tolerated
[3]
  efficacy in eliminating dermal tumours: more efficacious than ingenol mebutate
